Test [1] concerns MDA-MB-231 cells. Conditions: ref Yang et al., 2012; cited from earlier work. An excerpt:
Voltage-gated sodium channels (Navs; VGSCs) are membrane proteins with nine isoforms responsible for the rapid upstroke of action potentials in excitable cells ([de Lera Ruiz and Kraus, 2015]). VGSCs are present in excitable and non-excitable cells, including microglia, astrocytes, immune cells, fibroblasts, and cancer cells, and play various biological roles, such as tumour cell migration and immune cell phagocytosis ([Black and Waxman, 2013]; [Roger et al., 2015]). Nav1.5, encoded by SCN5A, is an essential receptor in breast cancer growth and migration ([Rajaratinam et al., 2022]). […] Nav1.5, a pore-forming alpha subunit of VGSC encoded by SCN5A, is not expressed in normal breast tissue or cells but is highly expressed in the breast cancer cell line MDA-MB-231 ([Dutta et al., 2018]). Elevated Nav1.5 expression promotes cell invasion and breakdown of extracellular matrix proteins, maintains ac ... || A peptide with anticancer activity was isolated and purified from animal venom to construct a new anticancer drug library. Compared to small-molecule drugs, peptide drugs have the advantages of high selectivity and affinity for molecular targets, and it is not easy to make tumours resistant to drugs ([Wu et al., 2014]). To date, many anticancer peptides have been screened from animal venom. […] Melittin, ...

Test [2] concerns MDA-MB-231 cells. Conditions: strongly metastatic MDA-MB-231 cells; ref Yang et al., 2012; cited from earlier work. An excerpt:
(§1) Voltage-gated sodium channels (Navs; VGSCs) are membrane proteins with nine isoforms responsible for the rapid upstroke of action potentials in excitable cells ([de Lera Ruiz and Kraus, 2015]). VGSCs are present in excitable and non-excitable cells, including microglia, astrocytes, immune cells, fibroblasts, and cancer cells, and play various biological roles, such as tumour cell migration and immune cell phagocytosis ([Black and Waxman, 2013]; [Roger et al., 2015]). Nav1.5, encoded by SCN5A, is an essential receptor in breast cancer growth and migration ([Rajaratinam et al., 2022]).

For test [3], the system named is human breast cancer cells. Conditions: ref Wannous et al., 2015; cited from earlier work.
Source text: as §1

A further test has as its system breast cancer cell. As to conditions: ref Driffort et al., 2014; cited from earlier work.
Source text: as §1

A further test relates to Nav1.5. The format is cell-based. As to conditions: Discussion: HEK293 cells heterologously expressing Nav1.5, 0.1 and 1 μM. On the procedure: Sodium currents in experimental cells were recorded at room temperature (22°C–25°C) using an EPC-10 patch-clamp amplifier (HEKA, Germany) in a whole-cell patch-clamp configuration. Recording pipettes were made from borosilicate glass capillaries (VWR, United States) using a PC-10 puller (Narishige, Japan). The inner solution (mM): KCl 130, NaCl 15, CaCl2 0.37, MgCl2 1 EGTA 1, HEPES 10, pH 7.2, resistance was measured as 1.8 MO. The outer solution was composed of (mM): NaCl 140, KCl 3, MgCl2 1, CaCl2 1, HEPES 10, pH 7.2. To minimize voltage errors, the series resistance compensation was set to 80%. The P/4 protocol was used to subtract the linear capacitance and leakage current. Experimental data were acquired and analyzed using the pulse fit 8.0 program (HEKA, Germany). The needed concentrations of toxin dissolved in external solution were applied to the cell surface by microinjector.
To determine the biological activity of synthetic and natural JZTX-14 on Nav1.5, we observed their effects on HEK293T cells heterologously expressing Nav1.5 using a whole-cell voltage-clamp configuration. The current traces were induced by a 50 ms depolarisation potential of −30 mV at a holding potential of −100 mV. Currents were recorded by adding 0.1 μM and 0.5 μM of JZTX-14 to the solution.

For a further test, the system named is breast cancer cells. As to conditions: inhibiting the PI3K/Akt/mTOR signalling pathway, ref Lim et al., 2019; cited from earlier work. An excerpt: A peptide with anticancer activity was isolated and purified from animal venom to construct a new anticancer drug library. Compared to small-molecule drugs, peptide drugs have the advantages of high selectivity and affinity for molecular targets, and it is not easy to make tumours resistant to drugs ([Wu et al., 2014]). To date, many anticancer peptides have been screened from animal venom. […] Melittin, ...

Where a SMILES comes first, the peptide text is derived from it. Bridges are numbered along the chain shown (N, C = ends).

Turning to `O=C1NC(=O)C(c2ccccc2)(c2ccccc2)N1` [Phenytoin], the Migration and invasion result in the test on MDA-MB-231 cells [1] is “significantly inhibiting the migration and invasion”. Besides, the “Transient and persistent Na+ current” value in the test on MDA-MB-231 cells [2] was “inhibited the transient and persistent Na^+ current”.
Turning to `CC/C=C\C/C=C\C/C=C\C/C=C\C/C=C\C/C=C\CCC(=O)O` [DHA], in test [3], the “Invasiveness of Nav1.5-dependent cancer cells” value is listed as “reducing the invasiveness of Nav1.5-dependent cancer cells”; the “Nav1.5 current and NHE-1 activity” value was “inhibits Nav1.5 current and NHE-1 activity”.
Consider `COc1ccccc1OCC(O)CN1CCN(CC(=O)Nc2c(C)cccc2C)CC1` (stereo not shown) [Ranolazine], for which the “Nav1.5-mediated breast cancer cell invasiveness and lung colonisation” value in the test on breast cancer cell was “inhibits Nav1.5-mediated breast cancer cell invasiveness and lung colonisation”.
On to `CC[C@H](C)[C@H](NC(=O)[C@@H]1CSSC[C@@H]2NC(=O)[C@@H]3CCCN3C(=O)[C@@H]3CCCN3C(=O)[C@H](CCC(N)=O)NC(=O)CNC(=O)[C@@H]3CCCN3C(=O)[C@H](Cc3c[nH]cn3)NC(=O)[C@@H]3CSSC[C@H](NC(=O)[C@H](C)NC(=O)[C@H](CC(C)C)NC(=O)CNC(=O)[C@H](CO)NC(=O)[C@H](CSSC[C@H](NC(=O)CN)C(=O)N[C@@H](CCC(N)=O)C(=O)N[C@@H](CCCCN)C(=O)N[C@@H](Cc4ccccc4)C(=O)N[C@@H](Cc4ccccc4)C(=O)N[C@@H](Cc4c[nH]c5ccccc45)C(=O)N[C@@H]([C@@H](C)O)C(=O)N3)NC2=O)C(=O)N[C@@H]([C@@H](C)O)C(=O)N[C@@H](Cc2c[nH]c3ccccc23)C(=O)N2CCC[C@H]2C(=O)N[C@@H]([C@@H](C)O)C(=O)N[C@@H](CCC(=O)O)C(=O)N[C@@H]([C@@H](C)CC)C(=O)N1)C(=O)N[C@@H](CC(C)C)C(N)=O` [natural JZTX-14] (H-GCQKFFWTCHPGQPPCCSGLACTWPTEICIL-NH2; disulfide 2-17, 9-22, 16-29), for which the “Inhibition of Nav1.5 channels (in words)” value in the test on Nav1.5 is recorded as “significantly inhibited Nav1.5 channels in a concentration-dependent manner”.
In the case of “Melittin: the main peptide component of Apis mellifera venom”, in the test on breast cancer cells, the “EGF-induced cell movement and invasion” value is “inhibits EGF-induced cell movement and invasion”.

Values taken from paper PMC10076671, “Spider venom-derived peptide JZTX-14 prevents migration and invasion of breast cancer cells via inhibition of sodium channels” (Frontiers in Pharmacology, 2023).
